Read-outs that look alike come from different tables or passages of the source.
Legend:
[1] = system: baby hamster kidney (BHK) cells; experiment: Cytotoxicity, CellTiter96 Proliferation Assay on BHK cells; format: cell-based
Procedure: The cytotoxicity of Co(NH3)6 (Structure IV) was assessed by monitoring its ability to inhibit proliferation of baby hamster kidney (BHK) cells. BHK cells were cultured as exponentially growing subconfluent monolayers in complete growth medium, particularly Dulbecco's Modified Eagle's Medium (DMEM) supplemented with 1% (v/v) antibiotic/antimycotic agent and 10% (v/v) heat inactivated fetal bovine serum (FBS). Cells were grown in either T25 or T75 flasks (Acton, Mass.) and incubated at 37° C. under 5% CO2 atmosphere. A subculture was performed every 3-4 days.
The in vitro toxicity of Co(NH3)6 was determined using the CellTiter96® Proliferation Assay (Promega, Madison, Wis.). This quantitative calorimetric assay is based upon the enzymatic conversion of a tetrazolium salt substrate into a blue formazan product with a maximum absorbance at 570 nm. […] At the assay endpoint, the absorbance at 570 nm is directly proportional to the number of viable cells. To assess compound toxicity, BHK cells were seeded into the wells of a 96-well tissue culture microtiter plate (2×10^4 cells/well) and cultured overnight at 37° C. in a humidified atmosphere containing 5% CO2. The next day, Co(NH3)6 was diluted into tissue culture media (at final concentrations ranging from 0 to 5 mM) and incubated with the cells for 72 hrs. Triplicate wells were included for each concentration. To control for any contaminating absorbance due to the compounds, control wells containing no cells were included at each compound concentration (“no cell” wells). At the end of the 72 hour culture period, 15 μL of tetrazolium substrate was added to each well and the plate was returned to the incubator for 4 hours to allow viable cells to convert the substrate into the formazan product. At the end of the 4 hour incubation period, 100 μL of solubilization solution was added to each well and the plate was subsequently incubated overnight to completely solubilize the contents of each well to a homogeneous color. The absorbance within each of the “no cell” wells was subtracted from the absorbance measured in the corresponding wells containing cells for each concentration of Co(NH3)6.

[2] = system: mRNA luciferase template; experiment: Rabbit Reticulocyte Lysate Translation System, luciferase mRNA translation (Western blot); format: biochemical; conditions: same test, CoCyclen data not provided
Procedure: CoHex is capable of preventing translation of a messenger RNA (mRNA) in vitro. The ability Co(NH3)6 to inhibit translation of an mRNA luciferase template was assessed using the Rabbit Reticulocyte Lysate Translation System (Promega) according to the manufacturer's instructions. In the example discussed below, Co(NH3)6 in various concentrations was incubated with the […] for 10 minutes before the addition of the mRNA template to the translation lysate. Translated luciferase protein was run on a 10% SDSPAGE gel for 45 min at 130 V and detected by Western blot on a PVDF membrane. Proteins were detected using a streptavidinalkaline phosphatase conjugate and Western Blue substrate according to the instructions in the Transcend Non-Radioactive Translation Detection System (Promega). In FIG. 2, Lane 1 represents the incubation of 0.01 mM Co(NH3)6. Lane 2 represents the incubation of 0.02 mM Co(NH3)6. Lane 3 represents the incubation of 0.05 mM Co(NH3)6. Lane 4 represents the incubation of 0.1 mM Co(NH3)6. Lane 5 represents the incubation of 0.2 mM Co(NH3)6. Lane 6 is a positive control in which no Co(NH3)6 is added. Lane 7 is a negative control in which no translation occurs. The lanes marked M are molecular weight marker lanes. […]

[3] = system: Sindbis virus; experiment: Sindbis virus plaque formation assay in BHK cells; format: cell-based, Sindbis virus (633-EGFP strain); conditions: 48 hours
[4] = system: Adenovirus; experiment: Flow cytometry propidium iodide viability of Adenovirus-infected A549 cells; format: cell-based; conditions: 6 hour pretreatment, 48 hours post infection, increasing concentration up to 0.0621 mM
From the text: Another example of antiviral activity is an in vitro model of a double stranded DNA (dsDNA) virus infection, Adenovirus. […] The same flow cytometry procedure discussed above for Sindbis viral infection in BHK cells was used for Adenovirus viral infection in A549 cells.

[5] = Ligand exchange with free histidine by UV-VIS and NMR; format: physicochemical; conditions: ratio 100:1 histidine to Co(NH3)6, results not shown
[6] = system: Sindbis virus; experiment: Log(PFU) per percent cell survival, plaque counts combined with CellTiter96 survival of infected BHK cells; format: cell-based; conditions: with increase in concentration, FIG. 4
From the text: Because live cell counts will decrease with increasing CoHex complex due to cytotoxicity of the cells and virus replication, but increase due to the anti-viral protection of CoHex, the plaque counts may have decreased due to the fact that there were less live cells available to count. […] The data of FIG. 3C was obtained using the CellTiter96 cell proliferation assay described above for the CoHex cytotoxicity data (i.e., with respect to FIG. 1) in which the cells were further infected with 5 plaque forming units per cell of Sindbis virus in DMEM containing 2% FBS in the absence or presence of various concentrations of Co(NH3)6, then assayed periodically.
Therefore, the fraction cell survival data of FIG. 3C was combined with the log pfu data of FIG. 3A to generate a ratio, Log(PFU) per percent cell survival, which although not a physical measure, is a general model of viruses in surviving cells.

[7] = system: Sindbis virus
Procedure: In these assays, Sindbis virus replication was assessed by monitoring viral structural protein synthesis using a recombinant Sindbis virus construct. In this construct, the gene encoding enhanced green fluorescent protein (EGFP) was placed under the control of the same promoter sequence that drives transcription of viral structural proteins. Thus, upon Sindbis virus replication, virally infected cells produce intracellular EGFP at levels that are proportional to the level of viral structural proteins.
BHK cells (1×10^5) were plated into the wells of 24-well plates in 1 mL of complete media and incubated with increasing concentrations of Co(NH3)6 for 6 hours prior to infection with Sindbis virus at a multiplicity of infection (moi) of 5 pfu per cell. The infection was allowed to proceed for 48 hours. In preparation for analysis by flow cytometry, cells from each well were removed and pelleted, washed with PBS, and resuspended in 500 μL of PBS. One half of each sample was analyzed directly to determine the percentage of EGFP-positive cells (percent infected cells). The other half of each sample was incubated with 5 μM propidium iodide for 1 minute prior to the determination of the percentage of non-viable cells. In all cases, analysis was performed on 1×10^4 cells.
BHK cells were pretreated with Co(NH3)6 for 6 hours prior to infection with Sindbis virus. After 48 hours post infection, both the percentage of Sindbis-infected cells (as evidenced by EGFP fluorescence) and the percentage of viable cells (as determined by the exclusion of propidium iodide (PI)) were determined as a function of Co(NH3)6 concentrations.

Co(NH3)6
cell viability ([1]; 72 hrs, at 2.5 mM): about 80%
CC50 ([1]; 72 hrs, from FIG. 1, read-out: 50% cytotoxicity concentration (CC50)): ~3200 µM
toxicity compared with cis-Platin ([1]; FIG. 1): much less toxic
toxicity (inhibition of cellular proliferation) ([1]; concentrations below 0.3 mM): no significant toxicity
toxicity (inhibition of cellular proliferation) ([1]; concentrations below 2.5 mM): only mildly toxic
concentration of maximum toxicity ([1]; highest concentration tested): 5000 µM
inhibition of protein translation relative to conventional CoCyclen structure [2]: about 10 times
IC50 ([3]; BHK cells, read-out: IC50, inhibition of Sindbis virus plaque formation): ~100 µM
maximal inhibition of virus replication, decrease in pfu over control ([3]; at about 2.5 mM): about 2.5 log
survival rate of Adenovirus-infected A549 cells [4]: increase in survival rate
exchange of ammonia groups with free histidine [5]: does not appear to have labile ligands
Log(PFU) per percent cell survival [6]: significant decrease in viral infection
selectivity ratio CC50/IC50 ([7]; Sindbis virus over BHK cells): about 25
percentage of EGFP-positive (Sindbis-infected) cells ([7]; at 0.15 mM): distinct decrease
effect of timing of administration on inhibition of EGFP expression ([7]; pretreatment, co-infection or early post-treatment): equally effective
IC50 ([7]; read-out: IC50, inhibition of EGFP expression, 6 hours pretreatment, 48 hours post infection, moi 5): 130 ± 40 µM

From US20080182835A1 (priority 2006, published 2008)
